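Tested at 5 concentrations; 48 h exposure; 96-well plates; endpoints linearly interpolated, else capped at highest concentration. The concentration for full growth arrest is given as TGI.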
Legend:
Assay in all cases: NCI-60 cell line screen, 48 h
[1] = tested on: RPMI-8226 leukemia
[2] = tested on: NCI-H522 lung
[3] = tested on: SK-MEL-2 melanoma
[4] = tested on: SF-295 CNS
[5] = tested on: 786-0 renal
[6] = tested on: U251 CNS
[7] = tested on: UACC-257 melanoma
[8] = tested on: SR leukemia
[9] = tested on: SNB-75 CNS
[10] = tested on: OVCAR-8 ovarian

SMILES	TGI [1] [µM]	TGI [2] [µM]	TGI [3] [µM]	TGI [4] [µM]	TGI [5] [µM]	TGI [6] [µM]	TGI [7] [µM]	TGI [8] [µM]	TGI [9] [µM]	TGI [10] [µM]
O=C1CSC(c2cccs2)N1c1nc2cc3sc(N4C(=O)CSC4c4cccs4)nc3cc2s1 (stereo not given)	> 50	> 50	> 50	> 50	> 50	> 50	> 50	> 50	> 50	> 50
Cn1c2ccccc2n2c(=O)c3cc([N+](=O)[O-])ccc3c(C#N)c12	> 100	> 100	> 100	> 100	> 100	> 100	> 100	> 100	> 100	> 100
O=C1NC2OC(CO)C(O)C(O1)C2O (stereo not given)	> 100	> 100	> 100	> 100	> 100	> 100	> 100	> 100	> 100	> 100
CCOC(=O)C(NC(=O)CC(C)C)(N1CCN(c2cc3c(cc2F)c(=O)c(C(=O)O)cn3C2CC2)CC1)C(F)(F)F (stereo not given)	78.6	11.9	53.3	61.5	> 100	> 100	57	45.8	64.5	> 100
CCOc1cc(-c2nc3ccccn3c2/N=C/c2cc(Br)ccc2O)ccc1O	> 100	> 100	> 100	> 100	60.4	40.2	53.5	> 100	31.3	59.3
Brc1ccc2c(-c3csc(-c4c[nH]c5ccc(Br)cc45)n3)c[nH]c2c1	> 21.4	4.95	18.8	10.9	4.71	16.5	23.1	> 100	24.9	24.1
COc1cc(I)c2c3c1OC1C34CCN(C)C(C2)C4=CC(I)C1(OC)OC (stereo not given)	49.7	44.2	32.9	> 100	43.7	33.9	49.4	40.9	31.2	53
NC(=O)c1cc2ccccc2o/c1=N/O	> 100	> 100	> 100	> 100	> 100	> 100	> 100	> 100	> 100	> 100
Brc1cccc(N=NN2CCCC2)c1	58.8	> 100	> 100	> 100	> 100	> 100	> 100	> 100	> 100	> 100
CC(C)(C)c1cc(/C=C(\C#N)C(=O)NCCO)cc(C(C)(C)C)c1O	35.6	37	37.4	40.8	48.3	39.9	35	49.4	72.4	> 100
COCc1nc2c(OC)cc(-c3nc4ccc(N5CCN(C)CC5)cc4[nH]3)c(OC)c2[nH]1	> 100	> 100	76.3	47.2	> 100	> 100	34.6	54.6	> 100	> 100
COc1ccc2c(c1)CC1=C(O2)c2ccc(OC)cc2OC1	> 100	35.4	81.6	> 100	50.8	39.9	37.8	> 100	66.3	78.2
Brc1cc2nn(-c3ccccc3)nc2c2nonc12	> 100	> 100	> 100	> 100	> 100	> 100	> 100	> 100	> 100	> 100
CCOn1c(C2(CC3CCN(C(=O)c4ccccc4)CC3)OCCO2)cc2ccccc21	28.1	35	32.2	30.5	30	29.9	23	22.5	34.6	29.2
NC(N)=NS(=O)(=O)c1ccc(NC(=O)c2ccc3nc4ccccc4c(Nc4ccc(S(=O)(=O)N=C(N)N)cc4)c3c2)cc1	> 100	> 100	> 100	> 100	> 100	> 100	> 100	> 100	> 100	> 100
COc1cc(CN2CCCCC2)cc2cc(C(=O)O)c(=O)oc12	> 100	> 100	> 100	> 100	> 100	> 100	> 100	> 100	> 100	> 100
COC(=O)C1CC2(c3ccccc3)C(=O)c3ccccc3N2O1 (stereo not given)	57	28.8	> 100	> 100	> 100	> 100	> 100	65.3	> 100	> 100
